Experimental data as given in patent US8501946B2 (Glaxo Group Limited, priority 2009, dated 2013).

Columns and labels:
[1] = biological target: T1, human recombinant P2X7 receptors (Homo sapiens, UniProt Q99572); assay: Ethidium Accumulation Assay 2 (HEK293 cells, ATP-induced ethidium uptake); format: cell-based; details: HEK293 cells expressing human P2X7; sometimes mean of more than one measurement; read-out: Assay 2 (antagonist pIC50 for blocking ATP responses) (converted)
T1 construct: expressed in transfected cells
T1 sequence (Q99572 1-595): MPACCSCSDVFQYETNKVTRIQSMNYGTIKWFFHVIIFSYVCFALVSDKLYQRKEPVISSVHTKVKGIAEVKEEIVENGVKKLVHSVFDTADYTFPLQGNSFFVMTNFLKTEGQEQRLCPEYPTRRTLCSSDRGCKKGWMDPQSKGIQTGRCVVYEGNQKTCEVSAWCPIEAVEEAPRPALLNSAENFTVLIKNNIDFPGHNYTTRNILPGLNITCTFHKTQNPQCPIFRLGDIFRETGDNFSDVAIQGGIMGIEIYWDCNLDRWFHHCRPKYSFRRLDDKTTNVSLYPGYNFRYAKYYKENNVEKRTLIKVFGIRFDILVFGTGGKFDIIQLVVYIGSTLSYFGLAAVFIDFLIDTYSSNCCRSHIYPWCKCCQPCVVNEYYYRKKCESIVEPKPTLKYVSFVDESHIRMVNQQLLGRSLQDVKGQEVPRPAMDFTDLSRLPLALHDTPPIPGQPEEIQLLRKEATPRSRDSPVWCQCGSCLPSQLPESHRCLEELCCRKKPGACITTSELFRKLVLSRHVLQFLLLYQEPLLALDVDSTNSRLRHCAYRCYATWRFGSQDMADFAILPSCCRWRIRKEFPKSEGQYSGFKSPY
Experimental: Eithidium Accumulation Assay 2
Human Embryonic Kidney (HEK) 293 cells, stably expressing human recombinant P2X7 receptors, were grown in poly-D-lysine pretreated 96 well plates for 24 hours at 37° C.
The cells were washed with assay buffer (100 μL), before addition of 25 μL of assay buffer and then 25 ul of assay buffer containing the putative P2X7 receptor antagonist compound. The cells were then incubated at room temperature (19-21° C.) for 30 min before addition of ATP solution (50 μM). […] Antagonist pIC50 values for blocking ATP responses were determined using iterative curve fitting techniques.

[2] = biological target: T1, human recombinant P2X7 receptors; assay: Ethidium Accumulation Assay 1 (HEK293 cells, ATP-induced ethidium uptake); format: cell-based; details: HEK293 cells expressing human P2X7; 1 mM ATP; sometimes mean of more than one measurement; read-out: Assay 1 (antagonist pIC50 for blocking ATP responses) (converted)

| IC50 [1] [nM] | IC50 [2] [nM] | Compound |
| --- | --- | --- |
| < 100 | – | O=C(c1ccc(Cl)cc1Cl)N1CCn2c(nnc2-c2cnsn2)C1 [Example 160, 7-[(2,4-dichlorophenyl)carbonyl]-3-(1,2,5-thiadiazol-3-yl)-5,6,7,8-tetrahydro[1,2,4]triazolo[4,3-a]pyrazine] |
| < 10 | – | Cc1c(C(=O)N2CCn3c(nnc3-c3cnccn3)C2)ccc(F)c1Cl [Example 146, 7-[(3-chloro-4-fluoro-2-methylphenyl)carbonyl]-3-(2-pyrazinyl)-5,6,7,8-tetrahydro[1,2,4]triazolo[4,3-a]pyrazine] |
| < 10 | – | Cc1c(F)ccc(C(=O)N2CCn3c(nnc3-c3cnccn3)C2)c1Cl [Example 153, 7-[(2-chloro-4-fluoro-3-methylphenyl)carbonyl]-3-(2-pyrazinyl)-5,6,7,8-tetrahydro[1,2,4]triazolo[4,3-a]pyrazine] |
| < 10 | – | O=C(c1ccc(Cl)c(F)c1Cl)N1CCn2c(nnc2-c2cnsn2)C1 [Example 190, 7-[(2,4-Dichloro-3-fluorophenyl)carbonyl]-3-(1,2,5-thiadiazol-3-yl)-5,6,7,8-tetrahydro[1,2,4]triazolo[4,3-a]pyrazine] |
| < 100 | – | O=C(c1ccc(Cl)c(F)c1Cl)N1CCn2c(nnc2-c2ncccc2O)C1 [Example 175, 2-{7-[(2,4-dichloro-3-fluorophenyl)carbonyl]-5,6,7,8-tetrahydro[1,2,4]triazolo[4,3-a]pyrazin-3-yl}-3-pyridinol] |
| < 10 | – | O=C(c1cccc(C(F)(F)F)c1Cl)N1CCn2c(nnc2-c2ncccc2O)C1 [Example 166, 2-(7-{[2-Chloro-3-(trifluoromethyl)phenyl]carbonyl}-5,6,7,8-tetrahydro[1,2,4]triazolo[4,3-a]pyrazin-3-yl)-3-pyridinol] |
| < 501 | – | Cc1ccc(C(=O)N2CCn3c(nnc3-c3cnccn3)C2)c(C(F)(F)F)c1 [Example 148, 7-{[4-methyl-2-(trifluoromethyl)phenyl]carbonyl}-3-(2-pyrazinyl)-5,6,7,8-tetrahydro[1,2,4]triazolo[4,3-a]pyrazine] |
| < 100 | – | Cc1ccc(-c2nnc3n2CCN(C(=O)c2ccc(F)c(Cl)c2Cl)C3)o1 [Example 167, 7-[(2,3-Dichloro-4-fluorophenyl)carbonyl]-3-(5-methyl-2-furanyl)-5,6,7,8-tetrahydro[1,2,4]triazolo[4,3-a]pyrazine] |
| < 10 | – | Cc1c(C(=O)N2CCn3c(nnc3-c3nccs3)C2)ccc(F)c1Cl [Example 201, 7-[(3-Chloro-4-fluoro-2-methylphenyl)carbonyl]-3-(1,3-thiazol-2-yl)-5,6,7,8-tetrahydro[1,2,4]triazolo[4,3-a]pyrazine] |
| < 10 | – | O=C(c1cccc(Cl)c1Cl)N1CCn2c(nnc2-c2ncns2)C1 [Example 192, 7-[(2,3-Dichlorophenyl)carbonyl]-3-(1,2,4-thiadiazol-5-yl)-5,6,7,8-tetrahydro [1,2,4]triazolo[4,3-a]pyrazine] |
| < 100 | – | O=C(c1ccc(F)c(Cl)c1Cl)N1CCn2c(nnc2-c2cccnn2)C1 [Example 168, 7-[(2,3-Dichloro-4-fluorophenyl)carbonyl]-3-(3-pyridazinyl)-5,6,7,8-tetrahydro[1,2,4]triazolo[4,3-a]pyrazine] |
| < 501 | – | O=C(c1ccc(Cl)cc1Cl)N1CCn2c(nnc2-c2ccon2)C1 [Example 161, 7-[(2,4-dichlorophenyl)carbonyl]-3-(3-isoxazolyl)-5,6,7,8-tetrahydro[1,2,4]triazolo[4,3-a]pyrazine] |
| < 100 | – | O=C(c1ccc(Cl)c(F)c1Cl)N1CCn2c(nnc2-c2ccns2)C1 [Example 178, 7-[(2,4-dichloro-3-fluorophenyl)carbonyl]-3-(5-isothiazolyl)-5,6,7,8-tetrahydro[1,2,4]triazolo[4,3-a]pyrazine] |
| < 10 | – | O=C(c1ccc(F)c(Cl)c1Cl)N1CCn2c(nnc2-c2ncns2)C1 [Example 169, 7-[(2,3-dichloro-4-fluorophenyl)carbonyl]-3-(1,2,4-thiadiazol-5-yl)-5,6,7,8-tetrahydro[1,2,4]triazolo[4,3-a]pyrazine] |
| < 10 | – | Cc1c(C(=O)N2CCn3c(nnc3-c3ncns3)C2)ccc(F)c1Cl [Example 193, 7-[(3-Chloro-4-fluoro-2-methylphenyl)carbonyl]-3-(1,2,4-thiadiazol-5-yl)-5,6,7,8-tetrahydro[1,2,4]triazolo[4,3-a]pyrazine] |
| < 100 | – | O=C(c1ccc(Cl)cc1Cl)N1CCn2c(nnc2-c2ncns2)C1 [Example 205, 7-[(2,4-dichlorophenyl)carbonyl]-3-(1,2,4-thiadiazol-5-yl)-5,6,7,8-tetrahydro[1,2,4]triazolo[4,3-a]pyrazine] |
| < 100 | – | O=C(c1ccc(Cl)cc1Cl)N1CCn2c(nnc2-c2nccs2)C1 [Example 199, 7-[(2,4-Dichlorophenyl)carbonyl]-3-(1,3-thiazol-2-yl)-5,6,7,8-tetrahydro[1,2,4]triazolo[4,3-a]pyrazine] |
| < 10 | – | [2H]c1ccnc(-c2nnc3n2CCN(C(=O)c2ccc(Cl)c(F)c2Cl)C3)c1 [Example 182, 7-[(2,4-Dichloro-3-fluorophenyl)carbonyl]-3-(2-pyridinyl)-5,6,7,8-tetrahydro[1,2,4]triazolo[4,3-a]pyrazine-d1] |
| < 10 | – | Cc1c(C(=O)N2CCn3c(nnc3-c3ccc(F)cn3)C2)ccc(F)c1Cl [Example 156, 7-[(3-chloro-4-fluoro-2-methylphenyl)carbonyl]-3-(5-fluoro-2-pyridinyl)-5,6,7,8-tetrahydro[1,2,4]triazolo[4,3-a]pyrazine] |
| < 10 | – | Cc1ccc(-c2nnc3n2CCN(C(=O)c2cccc(C(F)(F)F)c2Cl)C3)o1 [Example 159, 7-{[2-chloro-3-(trifluoromethyl)phenyl]carbonyl}-3-(5-methyl-2-furanyl)-5,6,7,8-tetrahydro[1,2,4]triazolo[4,3-a]pyrazine] |
| < 10 | – | O=C(c1cccc(C(F)(F)F)c1Cl)N1CCn2c(nnc2-c2ncns2)C1 [Example 164, 7-{[2-chloro-3-(trifluoromethyl)phenyl]carbonyl}-3-(1,2,4-thiadiazol-5-yl)-5,6,7,8-tetrahydro[1,2,4]triazolo[4,3-a]pyrazine] |
| < 100 | – | Cc1csnc1-c1nnc2n1CCN(C(=O)c1ccc(Cl)c(F)c1Cl)C2 [Example 203, 7-[(2,4-dichloro-3-fluorophenyl)carbonyl]-3-(4-methyl-3-isothiazolyl)-5,6,7,8-tetrahydro[1,2,4]triazolo[4,3-a]pyrazine] |
| < 10 | – | Cc1ccnc(-c2nnc3n2CCN(C(=O)c2ccc(Cl)c(F)c2Cl)C3)n1 [Example 177, 7-[(2,4-dichloro-3-fluorophenyl)carbonyl]-3-(4-methyl-2-pyrimidinyl)-5,6,7,8-tetrahydro[1,2,4]triazolo[4,3-a]pyrazine] |
| < 10 | – | O=C(c1ccc(Cl)c(F)c1Cl)N1CCn2c(nnc2-c2ccccn2)C1 [Example 173, 7-[(2,4-dichloro-3-fluorophenyl)carbonyl]-3-(2-pyridinyl)-5,6,7,8-tetrahydro[1,2,4]triazolo[4,3-a]pyrazine] |
| < 100 | – | O=C(c1ccc(Cl)cc1Cl)N1CCn2c(nnc2-c2ccns2)C1 [Example 158, 7-[(2,4-dichlorophenyl)carbonyl]-3-(5-isothiazolyl)-5,6,7,8-tetrahydro[1,2,4]triazolo[4,3-a]pyrazine] |
| < 100 | – | Cc1scnc1-c1nnc2n1CCN(C(=O)c1ccc(Cl)cc1Cl)C2 [Example 206, 7-[(2,4-dichlorophenyl)carbonyl]-3-(5-methyl-1,3-thiazol-4-yl)-5,6,7,8-tetrahydro[1,2,4]triazolo[4,3-a]pyrazine] |
| – | < 10 | O=C(c1cccc(Cl)c1Cl)N1CCn2c(nnc2-c2cccnc2)C1 [Example 61, 7-[(2,3-dichlorophenyl)carbonyl]-3-(3-pyridinyl)-5,6,7,8-tetrahydro[1,2,4]triazolo [4,3-a]pyrazine] |
| – | < 100 | O=C(c1cccc(C(F)(F)F)c1Cl)N1CCn2c(nnc2-c2ccc(F)cc2F)C1 [Example 24, 7-{[2-Chloro-3-(trifluoromethyl)phenyl]carbonyl}-3-(2,4-difluorophenyl)-5,6,7,8-tetrahydro[1,2,4]triazolo[4,3-a]pyrazine] |
| – | < 10 | Cc1cccc(-c2nnc3n2CCN(C(=O)c2cccc(C(F)(F)F)c2Cl)C3)n1 [Example 26, 7-{[2-chloro-3-(trifluoromethyl)phenyl]carbonyl}-3-(6-methyl-2-pyridinyl)-5,6,7,8-tetrahydro[1,2,4]triazolo [4,3-a]pyrazine] |
| – | < 100 | Cc1cc(-c2nnc3n2CCN(C(=O)c2cccc(C(F)(F)F)c2Cl)C3)no1 [Example 36, 7-{[2-chloro-3-(trifluoromethyl)phenyl]carbonyl}-3-(5-methyl-3-isoxazolyl)-5,6,7,8-tetrahydro[1,2,4]triazolo [4,3-a]pyrazine] |
